# Measured values reported in patent US20230040415A1 (PureTech LYT 100, Inc., priority 2020, published 2023).
# Where two headings read alike, the source gives them in different places.
# What was measured:
# [1] = Single-dose crossover clinical trial, 801 mg LYT-100 vs pirfenidone, plasma pharmacokinetics; settings: for Cmax / % AUC extrap / AUC0-t / AUC(inf) / Kel / t1/2 / tmax: fed, analyte = label; for Cmax / % AUC extrap / AUC0-t / AUC(inf) / Kel / t1/2: mean; for Cmax: n = 24; for tmax: median
# [2] = Repeat dose oral toxicity and toxicokinetics study in Sprague Dawley rats; settings: for dose proportionality of AUC0-24 / dose proportionality of Cmax: SD-560 250 to 750 mg/kg, Groups 2 to 4; for exposure in rat relative to human: male rat after 28 days of daily dosing vs human
# [3] = Multiple ascending dose (MAD) study Part 1, plasma pharmacokinetics
# [4] = set-up: AUC, Fasted / AUC, Fed: unit not given beside the values; settings: cited from earlier work; for share of recovered drug material in urine excreted as label: humans, oral pirfenidone
# [5] = cited from earlier work
# [6] = Food effect study Part 2, single 500 mg dose fed vs fasted; type: in vivo, human
# Procedure: The comparison will be based on Day 1, Day 2 and Day 3 PK plasma samples after the first dose of study drug on Day 1 under fast and fed conditions of Part 2.
# Subjects will be admitted to the CRU on Day −1 and will fast overnight for at least 10 h.
# [7] = Day 1, Female, label = Group 4 analyte vs its non-deuterated counterpart
# [8] = FIG. 23 (Cohort 6, 1000 mg BID)
# [9] = LYT-100 100, 250, 500, 750 mg BID cohorts (FIG. 19)
# [10] = Treatment = LYT-100, single 801 mg oral dose
# [11] = Treatment = LYT-100, single 801 mg
# [12] = Treatment = Pirfenidone, single 801 mg oral dose
# [13] = Treatment = Pirfenidone, single 801 mg
# [14] = LYT-100 @500 mg single dose, analyte = label
# [15] = LYT-100 @500 mg, 5-CO2 metabolite
Structure (SMILES),"average ratio of metabolite to the parent (M/P) by AUC [3, 8]","average ratio of metabolite to the parent (M/P) by AUC [3, 9]","Cmax [1, 10]","% AUC extrap [1, 11]","AUC0-t [1, 11]","AUC(inf) [1, 11]","Kel [1, 11]","t1/2 [1, 11]","tmax [1, 11]","Cmax [1, 12]","% AUC extrap [1, 13]","AUC0-t [1, 13]","AUC ratio Group 4 (LYT-100 at 750 mg/kg) / Group 5 (SD-559 at 750 mg/kg) [2, 7]","AUC ratio Group 4 (LYT-100 at 750 mg/kg) / Group 5 (SD-559 at 750 mg/kg) ([2]; Day 1, Male)","AUC ratio Group 4 (LYT-100 at 750 mg/kg) / Group 5 (SD-559 at 750 mg/kg) ([2]; Day 28, Female)",dose proportionality of AUC0-24 [2],dose proportionality of Cmax [2],"AUC ratio Group 4 (LYT-100 at 750 mg/kg) / Group 5 (SD-559 at 750 mg/kg) ([2]; Day 28, Male)",exposure in rat relative to human [2],share of recovered drug material in urine excreted as label [4],also measured
"[2H]C([2H])(O)c1ccc(=O)n(-c2ccccc2)c1 [LYT-110, 5-(hydroxymethyl-d2)-pirfenidone]",0.0028 (0.0018-0.0038),0.0025 (0.0020-0.0029),20.6 ng/mL,10.1%,111 ng·h/mL,124 ng·h/mL,0.294 h⁻¹,2.76 h,2.50 h,,,,2.50,2.22,2.59,dose proportional,dose proportional,2.54,~1600 fold,,"exposure and Cmax vs non-deuterated metabolite SD-788 from SD-559 ([2]; 750 mg/kg, all days, both genders): almost twice"
"Cc1ccc(=O)n(-c2ccccc2)c1 [Pirfenidone, 5-methyl-1-phenyl-1H-pyridin-2-one]",,,,,,,,,,,,,,,,,,,,less than 1%,"AUC, Fasted ([4]; Pirfenidone @800 mg): 69.7; AUC, Fed ([4]; Pirfenidone @800 mg): 59.3; Tmax, % Change Fed vs Fasted ([4]; Pirfenidone @800 mg): 500%; Tmax, Fasted ([4]; Pirfenidone @800 mg): 0.5 h; diarrhea, frequency ([5]; Lancaster et al. 2017, IPF): ≤ 27.6 per 100PEY; fatigue, frequency ([5]; Lancaster et al. 2017, IPF): ≤ 52.4 per 100PEY; nausea, frequency ([5]; Lancaster et al. 2017, IPF): ≤ 62.1 per 100 PEY; adverse drug reactions leading to permanent treatment discontinuation ([5]; PASSPORT study, Cottin et al. 2018): 28.7%; patients with an adverse event ([5]; compassionate use program, Raghu & Thickett 2013): 44%; patients with ADR leading to discontinuation ([5]; patients aged <65 years): 7.5%; patients with ADR leading to dose modification/interruption ([5]; patients aged <65 years): 18.0%; patients with ADR leading to discontinuation ([5]; patients aged ≥80 years): 20.9%; patients with ADR leading to dose modification/interruption ([5]; patients aged ≥80 years): 32.7%; elevations of AST and ALT to >3× ULN ([5]; phase III trials): 3.2%; reported AEs that were GI-related ([5]; single-center retrospective study of 351 patients): 75%"
"O=C(O)c1ccc(=O)n(-c2ccccc2)c1 [LYT-105, 5-carboxy-pirfenidone]",0.56 (0.44-0.66),0.45,3970 ng/mL,1.13%,23090 ng·h/mL,23350 ng·h/mL,0.262 h⁻¹,2.91 h,2.50 h,5241 ng/mL,0.843%,26932 ng·h/mL,0.49,0.45,0.71,dose proportional,approximately dose proportional,0.57,~7 fold,> 95%,"AUC(inf) [1, 13]: 27159 ng·h/mL; Kel [1, 13]: 0.288 h⁻¹; t1/2 [1, 13]: 2.55 h; tmax [1, 13]: 3.00 h; Cmax reduction of 5-carboxy-pirfenidone after LYT-100 relative to pirfenidone ([1]; single 801 mg dose each): 25%; AUC, % Change Fed vs Fasted [6, 14]: < 5%; Cmax, % Change Fed vs Fasted [6, 14]: < 5%; Tmax, Fasted [6, 15]: 0.75 h; Tmax, Fed [6, 15]: 1 h; lower Cmax and exposure than SD-789 formed from SD-559 ([2]; SD-560 750 mg/kg vs SD-559 750 mg/kg): approximately 50%; plasma exposure relative to exposure to pirfenidone ([4]; Huang, 2013): approximately 50%; average ratio of metabolite to the parent (M/P) by AUC ([3]; LYT-100 100, 250, 500, 750 mg BID cohorts (FIG. 19), listed as SD-789): 0.45 (0.37-0.50); dose dependence of AUC96-108 ([3]; across all dose Cohorts, 100-1000 mg BID): linear dose proportionality"

# The next lines start with results.
"average ratio of metabolite to the parent (M/P) by AUC [3, 8]","average ratio of metabolite to the parent (M/P) by AUC [3, 9]","Cmax [1, 10]","% AUC extrap [1, 11]","AUC0-t [1, 11]","AUC(inf) [1, 11]","Kel [1, 11]","t1/2 [1, 11]","tmax [1, 11]","Cmax [1, 12]","% AUC extrap [1, 13]","AUC0-t [1, 13]",Structure (SMILES),"AUC ratio Group 4 (LYT-100 at 750 mg/kg) / Group 5 (SD-559 at 750 mg/kg) [2, 7]","AUC ratio Group 4 (LYT-100 at 750 mg/kg) / Group 5 (SD-559 at 750 mg/kg) ([2]; Day 1, Male)","AUC ratio Group 4 (LYT-100 at 750 mg/kg) / Group 5 (SD-559 at 750 mg/kg) ([2]; Day 28, Female)",dose proportionality of AUC0-24 [2],dose proportionality of Cmax [2],"AUC ratio Group 4 (LYT-100 at 750 mg/kg) / Group 5 (SD-559 at 750 mg/kg) ([2]; Day 28, Male)",exposure in rat relative to human [2],share of recovered drug material in urine excreted as label [4],also measured
0.0037 (0.0030-0.0058),0.0017 (0.0012-0.0022),,,,,,,,,,,"[2H]C([2H])([2H])c1ccc(=O)n(-c2ccc(O)cc2)c1 [LYT-103, d3-4′-hydroxy-pirfenidone]",21.77,34.51,38.04,dose proportionally,less than dose proportional,,,,quantifiability of metabolite in human ([1]; after LYT-100): not quantifiable
,,,,,,,,,17.1 ng/mL,10.3%,75.8 ng·h/mL,"O=c1ccc(CO)cn1-c1ccccc1 [LYT-111, 5-hydroxymethyl-pirfenidone]",,,,,,,,,"AUC(inf) [1, 13]: 89.7 ng·h/mL; Kel [1, 13]: 0.367 h⁻¹; t1/2 [1, 13]: 2.04 h; tmax [1, 13]: 2.50 h; overall systemic exposure (AUC) of metabolite greater after LYT-100 than after pirfenidone ([1]; single 801 mg dose each): approximately 50%"
